Earlier results, collected in patent US4716040A, “Controlled absorption methyldopa pharmaceutical formulation” (Elan Corporation P.L.C., priority 1983, dated 1987).

Tests used:
[1] = test system: decarboxylation of dopa to dopamine

C[C@](N)(Cc1ccc(O)c(O)c1)C(=O)O [methyldopa, 3-hydroxy-α-methyl-L-tyrosine]
unchanged methyldopa in urine (of the methyldopa eliminated in the urine): about 25%
fraction of oral dose absorbed (oral): about one half
metabolites in urine (remainder of the methyldopa eliminated in the urine): mainly a mono-O-sulphate of methyldopa
oedema (hypertension; methyldopa therapy): sometimes observed
effect on standing and supine blood pressure (hypertension; moderate to severe hypertension): reducing the standing blood pressure and also reduces the supine blood pressure
maximum hypotensive effect may not occur until (hypertension; oral): second day of treatment
onset of effects after oral administration (hypertension; oral): about 2 hours
some effect still usually apparent after a dose (hypertension; oral): 24 h
decarboxylation of dopa to dopamine [1]: inhibits
